Measurements from article PMC2667487, “Cellular localization of kinin B1 receptor in the spinal cord of streptozotocin-diabetic rats with a fluorescent [N^α-Bodipy]-des-Arg^9-bradykinin” (Journal of Neuroinflammation, 2009).
Square brackets hold non-standard residues; d marks the D form. Peptide text beside a SMILES is read from it. d2Nal = N[C@H](Cc1ccc2ccccc2c1)C(=O)O

How the values were obtained:
[1] = target: T1, kinin B1R (Rattus norvegicus, UniProt P97583); assay: competition curves by quantitative autoradiography, displacement of [^125I]-HPP-desArg^10-Hoe 140 (B1R); details: 200 pM [^125I]-HPP-desArg^10-Hoe 140, competitor 10^-10 to 10^-6 M, thoracic spinal cord sections of STZ-treated rats, 90 min, room temperature, 25 mM PIPES-NH4OH pH 7.4; means ± SEM, 4 sections per rat from 7 rats; read-out: IC50, inhibition of total B1R binding sites
T1 construct: from tissue; host or cells: rat spinal cord sections (autoradiography)
T1 sequence (P97583 1-337): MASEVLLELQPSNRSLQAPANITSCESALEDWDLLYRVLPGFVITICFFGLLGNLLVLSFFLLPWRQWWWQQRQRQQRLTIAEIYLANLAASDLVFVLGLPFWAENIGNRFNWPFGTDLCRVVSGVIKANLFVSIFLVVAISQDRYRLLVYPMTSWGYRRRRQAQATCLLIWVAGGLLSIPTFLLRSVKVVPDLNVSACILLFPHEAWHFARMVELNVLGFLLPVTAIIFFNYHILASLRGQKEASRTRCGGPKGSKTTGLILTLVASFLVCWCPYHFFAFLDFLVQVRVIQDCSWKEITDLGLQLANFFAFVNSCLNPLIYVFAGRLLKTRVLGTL
Protocol: They were iodinated by the chloramine T method. […] At the end of the incubation period, slides were transferred sequentially through four rinses of 4 min each in 25 mM PIPES (pH 7.4; 4°C) dipped for 15s in distilled water (4°C) to remove the excess of salts, and then air-dried. Kodak Scientific Imaging Films BIOMAXTM MR® (Amersham Pharmacia Biotech Canada) were juxtaposed onto the slides in the presence of [^125I]-microscales and exposed at room temperature for 7 days. The films were developed (GBX developer) and fixed (GBX fixer). Autoradiograms were quantified by densitometry using an MCIDTM image analysis system (Imaging Research, St. Catharines, ON, Canada). A standard curve from [^125I]-microscales was used to convert density levels into fentomoles per milligram of protein [48]. Specific binding was determined by subtracting values of nonspecific binding from that of total binding. […] Each concentration of each competitor was tested on 4 sections per rat from 7 different rats. Those sections were exposed to the film, and total binding was calculated as described above. […] All data were expressed as means ± S.E.M. obtained from n rats. Statistical significance was determined with Student's t-test for unpaired samples or a one-way analysis of variance (ANOVA) followed by post-hoc Dunnett test for multiple comparisons.

[2] = tested on: rat model of insulin-resistance; details: cited from earlier work
Source text: (§1) Importantly, the development of tactile and cold allodynia in a rat model of insulin-resistance was blocked by the B1R antagonist SSR240612 [28] and by two antioxidants (N-acetyl-L-cysteine and alpha-lipoic acid) ...

[3] = tested on: B1R; details: cited from earlier work
Source text: as §1

| IC50 [1] [nM] | SMILES | development of tactile and cold allodynia, antioxidants [2] | induction of B1R, antioxidants [3] |
| --- | --- | --- | --- |
| 4.3 | CC[C@H](C)[C@H](NC(=O)[C@@H](Cc1ccc2ccccc2c1)NC(=O)[C@H](CO)NC(=O)[C@H](Cc1ccccc1)NC(=O)CNC(=O)[C@@H]1CCCN1C(=O)[C@@H]1CCCN1C(=O)[C@H](CCCN=C(N)N)NC(=O)[C@H](CCCCN)NC(C)=O)C(=O)O [R-715, AcLys [D-βNal^7, Ile^8]des-Arg^9-BK] (Ac-KRPPGFS[d2Nal]I-OH) | – | – |
| 19 | N=C(N)NCCC[C@H](N)C(=O)N1CCC[C@H]1C(=O)N1CCC[C@H]1C(=O)NCC(=O)N[C@@H](Cc1ccccc1)C(=O)N[C@@H](CO)C(=O)N1CCC[C@H]1C(=O)N[C@@H](Cc1ccccc1)C(=O)O [des-Arg^9-BK] | – | – |

The remaining lines, values behind:

| SMILES | IC50 [1] [nM] | development of tactile and cold allodynia, antioxidants [2] | induction of B1R, antioxidants [3] |
| --- | --- | --- | --- |
| CC1=CC(C)=[N+]2C1=Cc1ccc(CCC(=O)N[C@@H](CCCNC(=N)N)C(=O)N3CCC[C@H]3C(=O)N3CCC[C@H]3C(=O)NCC(=O)N[C@@H](Cc3ccccc3)C(=O)N[C@@H](CO)C(=O)N3CCC[C@H]3C(=O)N[C@@H](Cc3ccccc3)C(=O)O)n1[B-]2(F)F [BdABK, [N^α-Bodipy]-des-Arg^9-BK] | 5.3 | – | – |
| CC(=O)N[C@@H](CS)C(=O)O [N-acetyl-L-cysteine] | – | blocked | prevent the induction of B1R |
| O=C(O)CCCCC1CCSS1 (stereo not drawn) [alpha-lipoic acid] | – | blocked | prevent the induction of B1R |
